Laboratory results: ChEMBL document CHEMBL1201862, “PubChem BioAssay data set” (2004)
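Five concentrations, 48 hours, 96-well plates. Here, GI50 denotes the concentration required for 50% inhibition of growth.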 Activity calls are given as the source filed them. No stated cut-off is given here; in the data, active = GI50 up to about 1.1 µM and inactive = higher.

Columns and labels:
Test in all cases: DTP human tumour cell line panel, 48 h
SK-MEL-28 = test system: SK-MEL-28
SNB-19 = test system: SNB-19
A549 = test system: A549
EKVX = test system: EKVX
SNB-75 = test system: SNB-75
NCI-H23 = test system: NCI-H23
OVCAR-8 = test system: OVCAR-8
UO-31 = test system: UO-31
IGROV-1 = test system: IGROV-1
HCT-116 = test system: HCT-116
CCRF-CEM = test system: CCRF-CEM
K562 = test system: K562
SW-620 = test system: SW-620
SF-539 = test system: SF-539
HT-29 = test system: HT-29
SF-295 = test system: SF-295
COLO 205 = test system: COLO 205
HL-60 = test system: HL-60
HOP-92 = test system: HOP-92

## COc1cc2c(c(OC)c1)C(=O)C(=O)C(CC1(C)OCCCO1)=C2
SK-MEL-28
  GI50: 15.2 µM (inactive)
SNB-19
  GI50: 22.2 µM (inactive)
A549
  GI50: 10.9 µM (inactive)
EKVX
  GI50: 15.9 µM (inactive)
SNB-75
  GI50: 19.5 µM (inactive)
NCI-H23
  GI50: 9.12 µM (inactive)
OVCAR-8
  GI50: 11.5 µM (inactive)
UO-31
  GI50: 12.7 µM (inactive)
IGROV-1
  GI50: 14.2 µM (inactive)
HCT-116
  GI50: 4.38 µM (inactive)
CCRF-CEM
  GI50: 1.91 µM (inactive)
K562
  GI50: 2.29 µM (inactive)
SW-620
  GI50: 1.79 µM (inactive)
SF-539
  GI50: 17.5 µM (inactive)
HT-29
  GI50: 18.4 µM (inactive)
SF-295
  GI50: 13.9 µM (inactive)
COLO 205
  GI50: 3.49 µM (inactive)
HL-60
  GI50: 1.85 µM (inactive)
HOP-92
  GI50: 1.89 µM (inactive)

## COc1cccc(NC(=O)CC(=O)N2N=C(n3ccc4ccccc43)CC2c2ccccc2)c1 (centres undefined)
SK-MEL-28
  GI50: > 100 µM (inactive)
SNB-19
  GI50: > 100 µM (inactive)
A549
  GI50: > 100 µM (inactive)
EKVX
  GI50: > 100 µM (inactive)
SNB-75
  GI50: 71.3 µM (inactive)
NCI-H23
  GI50: > 100 µM (inactive)
OVCAR-8
  GI50: > 100 µM (inactive)
UO-31
  GI50: > 100 µM (inactive)
IGROV-1
  GI50: > 100 µM (inactive)
HCT-116
  GI50: > 100 µM (inactive)
CCRF-CEM
  GI50: > 100 µM (inactive)
K562
  GI50: > 100 µM (inactive)
SW-620
  GI50: > 100 µM (inactive)
SF-539
  GI50: > 100 µM (inactive)
HT-29
  GI50: > 100 µM (inactive)
SF-295
  GI50: > 100 µM (inactive)
COLO 205
  GI50: > 100 µM (inactive)
HL-60
  GI50: > 100 µM (inactive)
HOP-92
  GI50: 55.6 µM (inactive)

## CCC(=O)OC1CCn2c1nc1c2C(=O)C(C)=C(NC(C)=O)C1=N (centres undefined)
SK-MEL-28
  GI50: 2.05 µM (inactive)
SNB-19
  GI50: 5.26 µM (inactive)
A549
  GI50: 3.02 µM (inactive)
EKVX
  GI50: 2.63 µM (inactive)
SNB-75
  GI50: 2.48 µM (inactive)
NCI-H23
  GI50: 1.77 µM (inactive)
OVCAR-8
  GI50: 1.04 µM (active)
UO-31
  GI50: 2.2 µM (inactive)
IGROV-1
  GI50: 2.29 µM (inactive)
HCT-116
  GI50: 0.849 µM (active)
CCRF-CEM
  GI50: 1 µM (active)
K562
  GI50: 2.34 µM (inactive)
SW-620
  GI50: 0.916 µM (active)
SF-539
  GI50: 1.74 µM (inactive)
HT-29
  GI50: 1.61 µM (inactive)
SF-295
  GI50: 2.02 µM (inactive)
COLO 205
  GI50: 1.72 µM (inactive)
HL-60
  GI50: 0.774 µM (active)
HOP-92
  GI50: 2.21 µM (inactive)

## O=C1/C(=C/c2cccc([N+](=O)[O-])c2)Cc2ccccc21
SK-MEL-28
  GI50: > 100 µM (inactive)
SNB-19
  GI50: > 100 µM (inactive)
A549
  GI50: 91.6 µM (inactive)
EKVX
  GI50: > 100 µM (inactive)
SNB-75
  GI50: > 100 µM (inactive)
NCI-H23
  GI50: 73.1 µM (inactive)
OVCAR-8
  GI50: > 100 µM (inactive)
UO-31
  GI50: 94.8 µM (inactive)
IGROV-1
  GI50: > 100 µM (inactive)
HCT-116
  GI50: 39.7 µM (inactive)
CCRF-CEM
  GI50: > 100 µM (inactive)
K562
  GI50: > 100 µM (inactive)
SW-620
  GI50: 94.8 µM (inactive)
SF-539
  GI50: > 100 µM (inactive)
HT-29
  GI50: > 100 µM (inactive)
SF-295
  GI50: > 100 µM (inactive)
COLO 205
  GI50: > 100 µM (inactive)
HL-60
  GI50: > 100 µM (inactive)
HOP-92
  GI50: 75.3 µM (inactive)

## C=C(COC(C)=O)CC(/C=C(\C)CC/C=C(\C)CO)OC(C)=O (centres undefined)
SK-MEL-28
  GI50: > 100 µM (inactive)
SNB-19
  GI50: > 100 µM (inactive)
A549
  GI50: > 100 µM (inactive)
EKVX
  GI50: > 100 µM (inactive)
SNB-75
  GI50: 59 µM (inactive)
NCI-H23
  GI50: > 100 µM (inactive)
OVCAR-8
  GI50: > 100 µM (inactive)
UO-31
  GI50: > 100 µM (inactive)
IGROV-1
  GI50: > 100 µM (inactive)
HCT-116
  GI50: > 100 µM (inactive)
CCRF-CEM
  GI50: > 100 µM (inactive)
K562
  GI50: > 100 µM (inactive)
SW-620
  GI50: > 100 µM (inactive)
SF-539
  GI50: > 100 µM (inactive)
HT-29
  GI50: > 100 µM (inactive)
SF-295
  GI50: > 100 µM (inactive)
COLO 205
  GI50: > 100 µM (inactive)
HL-60
  GI50: > 100 µM (inactive)
HOP-92
  GI50: 54.8 µM (inactive)

## COC(=O)c1c2cccccc-2c(Cc2c3cccccc-3c(C(=O)OC)c2O)c1O
SK-MEL-28
  GI50: > 100 µM (inactive)
SNB-19
  GI50: > 100 µM (inactive)
A549
  GI50: > 100 µM (inactive)
EKVX
  GI50: > 100 µM (inactive)
SNB-75
  GI50: 86.5 µM (inactive)
NCI-H23
  GI50: > 100 µM (inactive)
OVCAR-8
  GI50: > 100 µM (inactive)
UO-31
  GI50: > 100 µM (inactive)
IGROV-1
  GI50: > 100 µM (inactive)
HCT-116
  GI50: > 100 µM (inactive)
CCRF-CEM
  GI50: > 100 µM (inactive)
K562
  GI50: > 100 µM (inactive)
SW-620
  GI50: > 100 µM (inactive)
SF-539
  GI50: > 100 µM (inactive)
HT-29
  GI50: > 100 µM (inactive)
SF-295
  GI50: > 100 µM (inactive)
COLO 205
  GI50: > 100 µM (inactive)
HL-60
  GI50: > 100 µM (inactive)
HOP-92
  GI50: > 100 µM (inactive)
